Measured values from patent publication US5571832A (priority 1994, dated 1996).

Experiments:
NMDA receptor = conditions: Carter et al 1988; cited from earlier work
sigma receptor [1] = conditions: cited from earlier work
sigma receptor [2] = target: sigma receptor (Cavia porcellus, UniProt Q60492); experiment: biochemical
sigma receptor (Cavia porcellus, UniProt Q60492), sequence (Q60492 whole entry): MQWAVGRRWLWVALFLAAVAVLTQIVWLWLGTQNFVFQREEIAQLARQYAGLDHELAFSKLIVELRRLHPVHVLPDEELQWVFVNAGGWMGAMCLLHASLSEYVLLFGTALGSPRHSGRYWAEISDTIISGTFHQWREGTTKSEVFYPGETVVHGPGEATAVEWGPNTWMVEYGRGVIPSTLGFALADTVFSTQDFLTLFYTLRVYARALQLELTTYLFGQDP

| Compound | NMDA receptor antagonism (NMDA receptor) | Ki (sigma receptor [2]) | also measured |
| --- | --- | --- | --- |
| 1-(4-chlorophenyl)-2-[1-(4-fluorophenyl)piperidinyl]ethanol | non-competitive NMDA receptor antagonists |  |  |
| CN(CCc1ccc(Cl)c(Cl)c1)[C@@H]1CCCC[C@@H]1N1CCCC1 (single isomer, unassigned) [cis-N-[3,4-dichlorophenylethyl]-N-methyl-2-(1-pyrrolidinyl)cyclohexylamine] |  |  | sigma ligand potency and selectivity (sigma receptor [1]): extremely potent and selective ligands for the sigma receptor |
| CN(CCc1ccc(Cl)c(Cl)c1)CC1CCCCN1C (stereo not drawn) [Compound 2, 2-[N-[2-(3,4-Dichlorophenyl)ethyl]-N-(methyl)aminomethyl]-1-(methyl)piperidine] |  | 3.69 ± 0.85 nM |  |
| CCN1CCCC1CNCCc1ccc(Cl)c(Cl)c1 (stereo not drawn) [Compound 3, 2-[N-(3,4-dichlorophenylethyl)aminomethyl]-1-(ethyl)pyrrolidine] |  | 16 ± 3.62 nM |  |
| CCN1CCCC1CN(C)CCc1ccc(Cl)c(Cl)c1 (stereo not drawn) [Compound 4, 2-[N-(3,4-Dichlorophenylethyl)-N-(methyl)aminomethyl]-1-(ethyl)pyrrolidine] |  | 1.48 ± 0.37 nM |  |
| CC(C(O)c1ccc(O)cc1)N1CCC(Cc2ccccc2)CC1 (stereo not drawn) [ifenprodil] | non-competitive NMDA receptor antagonists |  |  |
